Assay results published in ChEMBL document CHEMBL4184270, “Diastereoselective synthesis of fused cyclopropyl-3-amino-2,4-oxazine β-amyloid cleaving enzyme (BACE) inhibitors and their biological evaluation” (Bioorg Med Chem Lett, 2018).

Assays:
[1] = Dissociation constant, pKa of the compound by UV spectrophotometric method; type: physicochemical
[2] = Apparent permeability in pig LLC-PK1 cells; type: ADME, cell-based, Sus scrofa
[3] = Apparent intrinsic clearance in human liver microsomes at 1 uM; type: ADME, microsome; conditions: read-out: CLH(app)
[4] = Apparent intrinsic clearance in rat liver microsomes at 1 uM; type: ADME, microsome; conditions: read-out: CLH(app)
[5] = Plasma concentration in Crl:CD(SD) rat at 10 mg/kg, po administered as single dose via gavage measured after 4 hrs; type: ADME, organism-based
[6] = Unbound plasma concentration in Crl:CD(SD) rat at 10 mg/kg, po administered as single dose via gavage measured after 4 hrs; type: ADME, organism-based; conditions: in vivo
[7] = Drug level in Crl:CD(SD) rat CSF at 10 mg/kg, po administered as single dose via gavage measured after 4 hrs; type: ADME, organism-based, Cerebrospinal fluid; conditions: read-out: Drug uptake
[8] = Drug level in Crl:CD(SD) rat brain at 10 mg/kg, po administered as single dose via gavage measured after 4 hrs; type: ADME, organism-based; conditions: read-out: Drug uptake

| pKa [1] | Papp [2] [×10⁻⁶ cm/s] | microsomal CLint at 1 µM [3] [µL/min/mg] | microsomal CLint at 1 µM [4] [µL/min/mg] | concentration at 4 h [5] [nM] | Cp(f) [6] [nM] | concentration at 4 h [7] [nM] | concentration at 4 h [8] [nM] | Structure (SMILES) |
| --- | --- | --- | --- | --- | --- | --- | --- | --- |
| 9.8 | 3.4 | < 14 | 52 |  |  |  |  | COc1cnc(C(=O)Nc2ccc(F)c([C@]3(C)CCOC(N)=N3)c2)cn1 |
| 8.8 | 2.5 | 162 |  |  |  |  |  | COc1cnc(C(=O)Nc2ccc(F)c([C@@]3(C)N=C(N)O[C@H]4C[C@H]43)c2)cn1 |
| 9.3 | 1.8 | 105 | 30 | 2300 | 920 | 210 | 1100 | COc1cnc(C(=O)Nc2ccc(F)c([C@@]3(C)N=C(N)O[C@@H]4C[C@@H]43)c2)cn1 |
